For data set [1], the system named is clinical strains of HIV-1. The experiment in a line: AZT and ddI sensitivity of clinical strains of HIV-1 (Table 3). The format is cell-based. How it is done:
To determine the preclinical range of anti-HIV activity of various oligonucleotides of the invention (see TABLE 2), evaluations were performed with Oligo 12 (having SEQ ID NO:1), Oligo 32 (SEQ ID NO:3) and Oligo 41 (SEQ ID NO:6). These evaluations were performed to determine the activity of these compounds against a variety of wild type and drug resistant strains of HIV 1, including both laboratory derived and low passage, clinical strains of virus and T lymphocyte tropic and monocyte macrophage tropic viruses such as those listed below in TABLE 3.

In a further data set the test system is HIV-1 (IIIB, RF and SK1). The experiment in a line: XTT-based anti-HIV assay, laboratory strains of HIV-1. The format is cell-based. An excerpt:
(§1) The initial experiment performed involved evaluation of Oligos 12, 32, and 41 against three laboratory strains of HIV-1 (IIIB, RF and SK1) and one strain of HIV-2 (ROD) in parallel with the positive control compound ddC in the XTT-based anti-HIV assay. All these oligonucleotides are active against both HIV-1 and HIV-2.
CEM-SS sells (AIDS Research and Reference Reagent Program, NIH) or other established human T cell lines used in these experiments were passaged in T-150 flasks for use in the assay. On the day preceding the assay, the cells were split 1:2 to assure they would be in an exponential growth phase at time of infection. On the day of assay the cells were washed twice with tissue culture medium and resuspended in fresh tissue cultures medium. Total cell and viability counting was performed using a hemacytometer and trypan blue dye exclusion. Cell viability was greater than 95% for the cells to be utilized in the assay. The cells were pelleted and resuspended at 2.5×10^4 cells per ml in tissue culture medium. […]
A pretitered aliquot of virus was removed from the freezer −80° C.) and allowed to thaw slowly to room temperature in a biological safety cabinet. The virus was resuspended and diluted into tissue culture medium such that the amount of virus added to each well in a volume of 50 μl will be the amount determined to give complete cell killing at 6 days post-infection. […]
After 6 days of incubation at 37° C. in a 5% CO2 incubator, the test plates were analyzed by staining with the tetrazolium dye XTT. XTT-tetrazolium is metabolized by the mitochondrial enzymes of metabolically active cells to a soluble formazan product, allowing the rapid quantitative analysis of the inhibition of HIV-induced cell killing by anti-HIV test substances. […]
XTT solution was prepared daily as a stock of 1 mg/ml in PBS. […] Adhesive plate sealers were used in place of the lids, the sealed plate was inverted several times to mix the soluble formazan product and the plate was read spectrophotometrically at A450 nm with a Molecular Devices Vmax plate reader.

The test system of data set [2] is low passage, clinical strains of HIV-1. Description: Anti-HIV activity in fresh human peripheral blood mononuclear cells. The class given is cell-based. The conditions noted are these: fresh human PBMC; varies from strain to strain. How it is done: In another experiment, the anti-HIV activity of Oligos 12, 32, and 41 was evaluated against a variety of low passage, clinical strains of HIV-1 in fresh human peripheral blood mononuclear cells. These strains include viruses obtained from pediatric patients attending the Children's Hospital University of Alabama at Birmingham as well as viruses representative of the various HIV-1 clades found throughout the world, shown below in TABLE 4.
Fresh human peripheral blood lymphocytes (PBL) were isolated from voluntary Red Cross donors, seronegative for HIV and HBV. Leukophoresed blood was diluted 1:1 with Dulbecco's phosphate buffered saline (PBS), layered over 14 ml of Ficoll-Hypaque density gradient in a 50 ml centrifuge tube. Tubes were then centrifuged for 30 minutes at 600×g. Banded PBLs were gently aspirated from the resulting interface and subsequently washed 2× with PBS by low speed centrifugation. After final wash, cells were enumerated by trypan blue exclusion and re-suspended at 1×10^7/ml in RPMI 1640 with 15% Fetal Bovine Serum (FBS), 2 mM L-glutamine, […] PHA-P and allowed to incubate for 48–72 hours at 37° C. After incubation, PBLs were centrifuged and reset in RPMI 1640 with 15% FBS, 2 mM L-glutamine, 100 U/ml penicillin, 100 μg/ml streptomycin, 10 μg/ml gentamycin, and 20 U/ml recombinant human IL-2. PBLs were maintained in this medium at a concentration of 1–2×10^6/ml with bi-weekly medium changes, until use in assay protocol. […]
In the standard PBL assay (MOI: 0.2), the assay was ended on day 7 following collection of cell free supernatant samples for reverse transcriptase activity assay. In the low MOI PBL assay (MOI: 0.02), supernatant samples were collected on day 6, day 11, and day 14 post-infection and analyzed for RT activity. […] Opti-Fluor O was added to each sample and incorporated radioactivity was quantified utilizing a liquid scintillation counter, (Wallac 1450 Microbetaplus, Gaithersburg, Md.).

Data set [3] concerns monocyte-macrophage-tropic strains BaL and ADA. The experiment in a line: Anti-HIV assay in fresh human monocyte-macrophages. The class given is cell-based, HIV-1. The method, then: In addition to these T-tropic strains, the activity of the compounds was also evaluated against the monocyte-macrophage strains BaL and ADA. Oligos 12 and 32 according to the invention, as well as Oligo 41 are active against low passage clinical T-tropic strains of HIV-1. The activity of the compounds varies from strain to strain. The compounds were not active against the monocyte-macrophage-tropic strains BaL and ADA.
For isolation of adherent cells, 3×10^6 non-PHA stimulated peripheral blood cells were resuspended in Hanks buffered saline (with calcium and magnesium) supplemented with 10% human AB serum. The cells were placed in a 24-well microtiter plate at 37° C. for 2 hours. Non-adherent cells were removed by vigorously washing six times. The adherent cells were cultured for 7 days in RPMI 1640 tissue culture medium with 15% fetal bovine serum. The cultures were carefully monitored for confluency during this incubation period. Infection of the cells was performed with the monocytotropic HIV-1 strains BaL or ADA and the matched pair of AZT-sensitive and AZT-resistant virus isolates. Each of these virus isolates was obtained from the NIAID AIDS Research and Reference Reagent Program. High titer pools of each of these viruses have been harvested from infected cultures of peripheral blood adherent cells and frozen in 1.0 ml aliquots at −80° C. Monocyte-macrophage monolayers were infected at an MOI of 0.1. Compounds to be evaluated in the monocyte-macrophage assay are added to the monolayers shortly before infection in order to maximize the potential for identifying active compounds.
At 2 days post-infection, the medium was decanted and the cultures washed twice with complete medium in order to remove excess virus. […] Control curves are generated in each assay to accurately quantify the amount of capsid protein in each sample. Data was obtained by spectrophotometric analysis at 450 nm using a plate reader (Molecular Devices Vmax). P24 concentrations were calculated from the optical density values by use of the Molecular Device software package Soft Max.

The next data set deals with HIV-2 (ROD). Description: XTT-based anti-HIV assay, HIV-2. The format is cell-based. The conditions noted are these: XTT assay.
Description: as §1
CEM-SS sells (AIDS Research and Reference Reagent Program, NIH) or other established human T cell lines used in these experiments were passaged in T-150 flasks for use in the assay. On the day preceding the assay, the cells were split 1:2 to assure they would be in an exponential growth phase at time of infection. On the day of assay the cells were washed twice with tissue culture medium and resuspended in fresh tissue cultures medium. Total cell and viability counting was performed using a hemacytometer and trypan blue dye exclusion. Cell viability was greater than 95% for the cells to be utilized in the assay. The cells were pelleted and resuspended at 2.5×10^4 cells per ml in tissue culture medium. Cells were added to the drug-containing plates in a volume of 50 μl.
A pretitered aliquot of virus was removed from the freezer −80° C.) and allowed to thaw slowly to room temperature in a biological safety cabinet. The virus was resuspended and diluted into tissue culture medium such that the amount of virus added to each well in a volume of 50 μl will be the amount determined to give complete cell killing at 6 days post-infection. In general the virus pools produced with the IIIB isolate of HIV required the addition of 5 μl of virus per well.
Each plate contained cell control wells (cells only), virus control wells (cells plus virus), drug toxicity control wells (cells plus drug only), drug colorimetric control wells (drug only) as well as experimental wells (drug plus cells plus virus).
After 6 days of incubation at 37° C. in a 5% CO2 incubator, the test plates were analyzed by staining with the tetrazolium dye XTT. XTT-tetrazolium is metabolized by the mitochondrial enzymes of metabolically active cells to a soluble formazan product, allowing the rapid quantitative analysis of the inhibition of HIV-induced cell killing by anti-HIV test substances. On day 6 post-infection plates were removed from the incubator and observed. The use of round bottom microtiter plates allows rapid macroscopic analysis of the activity of a given test compound by the evaluation of pellet size. The results of the macroscopic observations were confirmed and enhanced by further microscopic analysis.
XTT solution was prepared daily as a stock of 1 mg/ml in PBS. Phenazine methosulfate (PMS) solution was prepared at 15 mg/ml in PBS and stored in the dark at −20° C. XTT/PMS stock was prepared immediately before use by diluting the PMS 1:100 into PBS and adding 40 μl per ml of XTT solution. Fifty microliters of XTT/PMS was added to each well of the plate and the plate was incubated for an additional 4 hours at 37° C. Adhesive plate sealers were used in place of the lids, the sealed plate was inverted several times to mix the soluble formazan product and the plate was read spectrophotometrically at A450 nm with a Molecular Devices Vmax plate reader.

Like-named read-outs stand apart in the source and are kept apart here.

For the compound `O=c1[nH]cnc2c1ncn2[C@H]1CC[C@@H](CO)O1` [ddi, dideoxyinosine], the IC50 stood at 2.61 µM in data set [1] (isolate BAKI, tropism L, read-out: ddi IC50); 0.87 µM in data set [1] (isolate ROJO, tropism L, read-out: ddi IC50); 0.16 µM in data set [1] (isolate ROMA, tropism M, read-out: ddi IC50); 0.32 µM in data set [1] (isolate SLKA, tropism M, read-out: ddi IC50); 0.23 µM in data set [1] (isolate STDA, tropism L, read-out: ddi IC50); 0.37 µM in data set [1] (isolate TEKI, tropism L, read-out: ddi IC50). Further, the half-inhibitory concentration (IC50) in data set [1] (isolate TEKI, tropism M, read-out: ddi IC50) was 1.7 µM; in data set [1] (isolate VIHU, tropism L, read-out: ddi IC50), 1.21 µM; in data set [1] (isolate WEJO, tropism L, read-out: ddi IC50) it was 2.18 µM; in data set [1] (isolate WOME, tropism L, read-out: ddi IC50) it was 0.41 µM.
Turning to `Cc1cn([C@H]2C[C@H](N=[N+]=[N-])[C@@H](CO)O2)c(=O)[nH]c1=O` [AZT, 3′-azido-3′-deoxythymidine], the IC50 was determined as 0.049 µM in data set [1] (Human immunodeficiency virus 1, isolate BAKI, tropism L, read-out: AZT IC50); 0.01 µM in data set [1] (Human immunodeficiency virus 1, isolate BLCH, tropism L, read-out: AZT IC50); 0.015 µM in data set [1] (Human immunodeficiency virus 1, isolate DEJO, tropism L, read-out: AZT IC50); 0.01 µM in data set [1] (Human immunodeficiency virus 1, isolate RIARL, tropism L, read-out: AZT IC50); 0.016 µM in data set [1] (Human immunodeficiency virus 1, isolate ROJO, tropism L, read-out: AZT IC50); 0.016 µM in data set [1] (Human immunodeficiency virus 1, isolate ROMA, tropism M, read-out: AZT IC50). Also, the IC50 turned out to be 0.025 µM in data set [1] (Human immunodeficiency virus 1, isolate SLKA, tropism M, read-out: AZT IC50); 0.017 µM in data set [1] (Human immunodeficiency virus 1, isolate STDA, tropism L, read-out: AZT IC50); 0.029 µM in data set [1] (Human immunodeficiency virus 1, isolate TEKI, tropism L, read-out: AZT IC50); 0.016 µM in data set [1] (Human immunodeficiency virus 1, isolate TEKI, tropism M, read-out: AZT IC50); 0.016 µM in data set [1] (Human immunodeficiency virus 1, isolate VIHU, tropism L, read-out: AZT IC50); 0.056 µM in data set [1] (Human immunodeficiency virus 1, isolate WEJO, tropism L, read-out: AZT IC50). In addition, in data set [1] (Human immunodeficiency virus 1, isolate WOME, tropism L, read-out: AZT IC50), the IC50 came out at 0.016 µM.
For “CGCACCCATCTCTCTCCUUCU (chemistry not given here) [Oligo 32]”, the “activity against HIV-1” value in the data set on HIV-1 (IIIB, RF and SK1) was “active”. The “activity against low passage clinical T-tropic strains of HIV-1” value in data set [2] is “active”. The “activity against monocyte-macrophage-tropic strains BaL and ADA” value in data set [3] is “not active”. Also, the “level of activity against the HIV-2 strain ROD” value with HIV-2 (ROD) (compared with the HIV-1 strains) is “enhanced level of activity”. In addition, in the data set on HIV-2 (ROD) (strain ROD), the “activity against HIV-2” value is “active”.

Source of the values: patent publication US7173014B2, “HIV-specific synthetic oligonucleotides and methods of their use” (priority 1997, dated 2007).
